Experimental data as given in patent US10533010B2, “Substituted indole Mcl-1 inhibitors” (Vanderbilt University, priority 2014, dated 2020).
Read-outs that look alike come from different tables or passages of the source.

Molecular target: recombinant Mcl-1 (residues 172-327) (Homo sapiens (Human), UniProt Q07820)
Experiment: Fluorescence polarization anisotropy competition assay (FITC-Bak or FITC-Bim BH3 peptide) with Mcl-1
Format: binding
Settings: Table 2, FITC-Bak or FITC-Bim peptide competition, Ki converted from IC50, read-out: Ki for Inhibition of Mcl-1

recombinant Mcl-1 (residues 172-327), sequence (Q07820 172-327): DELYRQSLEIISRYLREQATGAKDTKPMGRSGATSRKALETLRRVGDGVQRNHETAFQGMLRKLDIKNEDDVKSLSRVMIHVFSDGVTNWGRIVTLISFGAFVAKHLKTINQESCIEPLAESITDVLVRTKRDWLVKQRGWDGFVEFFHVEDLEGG

SMILES	Ki (Ki bins given in nM)	Ki (Ki bins given in μM)
Cc1cc(OCCCc2c(C(=O)Nc3cccc(C(=O)O)c3)[nH]c3c(-c4c(C)nn(CCN5CCOCC5)c4C)c(Cl)ccc23)cc(C)c1Cl [I-191, 3-(6-chloro-3-(3-(4-chloro-3,5-dimethylphenoxy)propyl)-7-(3,5-dimethyl-1-(2-morpholinoethyl)-1H-pyrazol-4-yl)-1H-indole-2-carboxamido)benzoic acid]	< 50 nM	
Cc1cc(OCCCc2c3n(c4c(-c5c(C)nn(C)c5C)c(Cl)ccc24)CCCN(c2cccc4c2ccn4CC(=O)O)C3=O)cc(C)c1Cl [I-348, 2-(4-(8-chloro-11-(3-(4-chloro-3,5-dimethylphenoxy)propyl)-1-oxo-7-(1,3,5-trimethyl-1H-pyrazol-4-yl)-4,5-dihydro-1H-[1,4]diazepino[1,2-a]indol-2(3H)-yl)-1H-indol-1-yl)acetic acid]	< 50 nM	
Cc1cc(OCCCc2c(C(=O)NCc3cc(C(=O)O)c(CN4CCc5ccccc5C4)o3)[nH]c3c(-c4c(C)nn(C)c4C)cccc23)cc(C)c1Cl [I-293, 5-((3-(3-(4-chloro-3,5-dimethylphenoxy)propyl)-7-(1,3,5-trimethyl-1H-pyrazol-4-yl)-1H-indole-2-carboxamido)methyl)-2-((3,4-dihydroisoquinolin-2(1H)-yl)methyl)furan-3-carboxylic acid]	< 50 nM	
Cc1cc(OCCCc2c(C(=O)NCCc3ccccc3)[nH]c3ccccc23)cc(C)c1Cl [I-42, 3-(3-(4-chloro-3,5-dimethylphenoxy)propyl)-N-phenethyl-1H-indole-2-carboxamide]		10000 to 50000 nM
Cc1cc(OCCCc2c(C(=O)NCc3ccccc3)[nH]c3ccccc23)cc(C)c1Cl [I-41, N-benzyl-3-(3-(4-chloro-3,5-dimethylphenoxy)propyl)-1H-indole-2-carboxamide]		10000 to 50000 nM
Cc1cc(OCCCc2c(C(=O)Nc3cccc(C(=O)NS(=O)(=O)c4ccc([N+](=O)[O-])cc4)c3)[nH]c3c(-c4cccnc4C)cccc23)cc(C)c1Cl [I-68, 3-(3-(4-chloro-3,5-dimethylphenoxy)propyl)-7-(2-methylpyridin-3-yl)-N-(3-(((4-nitrophenyl)sulfonyl)carbamoyl)phenyl)-1H-indole-2-carboxamide]	51 to 100 nM	
Cc1cc(OCCCc2c3n(c4c(-c5c(C)nn(C)c5C)c(Cl)ccc24)CCC(C)N(Cc2ccc(C(=O)O)cn2)C3=O)cc(C)c1Cl (stereo not shown) [I-124, 6-((8-chloro-11-(3-(4-chloro-3,5-dimethylphenoxy)propyl)-3-methyl-1-oxo-7-(1,3,5-trimethyl-1H-pyrazol-4-yl)-4,5-dihydro-1H-[1,4]diazepino[1,2-a]indol-2(3H)-yl)methyl)nicotinic acid]	< 50 nM	
Cc1cc(OCCCc2c3n(c4c(-c5c(C)nn(C)c5C)c(Cl)ccc24)C(C)[C@@H](C)NC3=O)cc(C)c1Cl (stereo partly drawn) [I-119, (3R)-7-chloro-10-(3-(4-chloro-3,5-dimethylphenoxy)propyl)-3,4-dimethyl-6-(1,3,5-trimethyl-1H-pyrazol-4-yl)-3,4-dihydropyrazino[1,2-a]indol-1(2H)-one]	101 to 299 nM	
Cc1cc(OCCCc2c3n(c4c(-c5c(C)nn(C)c5C)c(Cl)ccc24)[C@@H](C)CN(Cc2ccc(C(=O)O)cn2)C3=O)cc(C)c1Cl [I-149, (S)-6-((7-chloro-10-(3-(4-chloro-3,5-dimethylphenoxy)propyl)-4-methyl-1-oxo-6-(1,3,5-trimethyl-1H-pyrazol-4-yl)-3,4-dihydropyrazino[1,2-a]indol-2(1H)-yl)methyl)nicotinic acid]	< 50 nM	
Cc1cc(OCCCc2c(C(=O)N[C@@H]3CCC[C@@H](C(=O)O)C3)[nH]c3c(-c4c(C)nn(C)c4C)c(Cl)ccc23)cc(C)c1Cl [I-322, (1R,3R)-3-(6-chloro-3-(3-(4-chloro-3,5-dimethylphenoxy)propyl)-7-(1,3,5-trimethyl-1H-pyrazol-4-yl)-1H-indole-2-carboxamido)cyclohexane-1-carboxylic acid]	< 50 nM	
